Experimental data as given in patent US20240279684A1, “CYTOSOLIC DELIVERY OF GENOME EDITING TOOLS” (SAPREME TECHNOLOGIES B.V., priority 2021, published 2024).
Entries after “also recorded” stand apart in the source; their conditions may differ.

Assays:
Neuro-2A cells = test: Transfection efficiency of PD-nanoplexes with/without saponin, flow cytometry (GFP); format: cell-based, murine
Experimental: (§1) After biophysical characterisation had established that nanoplexes of the large plasmid DNA and the poly-lysine peptide were formed, cell experiments were performed: transfections. […] Without wishing to be bound by any theory, the latter effect is most likely due to insufficient complexing of DNA. […] JIMT-1-cells (DSMZ no.: ACC 589) and Neuro-2A- cells (DSMZ no.: ACC 148) were transfected with nanoplexes containing relatively large Cas9-GFP-plasmid, with and without GE1741-Co-application or SO1861-Co-application at a non-toxic concentration, when the cell which is to be transfected is considered. The transfection efficiency of all transfection conditions was measured after 48 h incubation time using flow cytometry by comparison to the negative control in terms of fluorescence intensity (for example, cells contacted with the nanoparticles in the absence of saponin). The efficiency of GE1741-based transfections and SO1861-based transfections was also compared with efficiency of Lipofectamine3000™-based transfection of the nanoparticles. Transfections were performed according to protocols commonly known and applied in the field (Clochard et al., 2020; Sama et al., 2018a; Sama et al., 2017; Sama et al., 2018b). […] Transfection efficiency of GE1741-mediated PD-transfection and SO1861-mediated PD-transfections on Neuro-2A cells and JIMT-1 cells was assessed. Cells were transfected with Cas9-GFP-DNA containing PD-nanoplexes, with and without GE1741 or SO1861 (final concentration of the saponin was 2 μg/ml). In Neuro-2A cells and JIMT-1 cells transection efficiency varied between 30% and 40%. Lipofectamin3000 served as reference. n≥3; a significant difference compared to the GE1741-free transfections or SO1861-free transfections was apparent, U-test, p≤0.05.
FIG. 4A, B. Transfection efficiency of saponin-mediated PD (Cas9-GFP)-transfections on Neuro-2A cells (FIG. 4A) and on JIMT-1-cells (FIG. 4B). Neuro-2A cells (A) and JIMT-1 cells (B) were transfected with GFP-DNA (i.e. a plasmid comprising the GFP DNA) bearing PD-nanoplexes or with Cas9-GFP-DNA bearing PD-nanoplexes, with and without the highest non-toxic saponin Co-administration (GE1741 Co-administration at 2 μg/ml or SO1861 Co-administration at 2 μg/ml). While GFP-DNA-transfections reached high efficiencies of around 70%, approximately 40% of all cells expressed GFP after Cas9-GFP-transfection. […] N≥3; *: significant difference compared to the saponin-free transfection (only nuclease), U-test.
JIMT-1-cells (human breast carcinoma) and Neuro-2A-cells (murine neuroblastoma) were transfected with nanoplexes, containing Cas9-GFP-plasmid, with and without saponin GE1741-co-application or saponin SO1861-co-application (that is to say, the saponin is added to the cell culture together with the addition of the nanoparticles comprising the nucleic acid that is to be transfected in the presence of the saponin), in a non-toxic concentration when the saponins are considered. The mass ratios for the peptide and the nucleic acid (plasmid DNA) in the nanoparticles were selected considering the dynamic light scattering (DLS) measurements and considering the aforementioned earlier assessed toxicity and earlier performed efficiency studies. The transfection efficiency of all transfection conditions was measured after 48 h incubation time via flow cytometry by comparison to the negative control in terms of fluorescence intensity (FIG. 4). […]

JIMT-1 cells = test: as above; format: cell-based, human; details: GFP-DNA PD-nanoplexes, saponin 2 μg/ml
Experimental: as §1, with “Cells were transfected with Cas9-GFP-DNA containing PD-nanoplexes, with and without GE1741 or SO1861 (final concentration of the saponin was 2 μg/ml). In Neuro-2A cells and JIMT-1 cells transection efficiency varied between 30% and 40%. Lipofectamin3000 served as reference. n≥3; a significant difference compared to the GE1741-free transfections or SO1861-free transfections was apparent, U-test, p≤0.05.” left out

Neuro-2A-cells = test: Confluence measurements during PD-transfections (Cytosmart live-cell imager); format: cell-based, murine; details: Cas9-GFP- and GFP-DNA-transfections ± saponin, up to 95 h, vs untreated negative control
Experimental: FIG. 5A-F. Confluence measurements of Neuro-2A-cells during PD (Cas9-GFP)-transfections ±saponin-administration. A visual monitoring of confluence was conducted during the Cas9-GFP-transfections (FIGS. 5A, E, F) and GFP-DNA-transfections (FIGS. 5A, C, D) of Neuro-2A-cells. The display of confluence during the incubation time was provided by algorithms of the Cytosmart. […] Saponin GE1741 was absent (FIGS. 5A, C, E) or present (FIGS. 5A, D, F) during the confluency assessment over time. FIG. 5B-F show the Neuro-2A cell-confluency after an incubation time of 95 h.
In the course of the transfection process of Neuro-2A-cells (seeding, transfection, incubation), the cells were fully imaged and analyzed for confluence by a live-cell imager (Cytosmart Omni). Via cloud-based algorithms, which processed the visual images, the Cytosmart provided a valuable measure of viability in terms of confluence.

[1] = system: cells with which the nanoplexes are contacted; test: Toxicity of saponin towards cells during transfection; format: cell-based
Source text: It is part of the invention that the method or the use of the invention is characterized in that the nanoparticle comprises the nanoparticle-forming compound, such as a peptide, such as poly-lysine, and the nucleic acid in a mass ratio in a range of 3:1 to 15:1, preferably in a range of 3:1 to 9:1. Typically, the nanoparticle-forming compound is a poly-lysine peptide such as K16 peptide. Preferred is the method wherein the nucleic acid is a plasmid DNA, at least encoding for a Cas, preferably Cas9 (SEQ ID NO: 1), and optionally also encoding for the gRNA, and wherein the nanoparticles comprise in addition to the plasmid DNA at least one poly-lysine peptide, preferably poly-lysine K16 peptide (poly-lysine peptide consisting of sixteen lysine residues). Alternatively, the poly-lysine peptide is a peptide consisting of 8-25 lysine residues, preferably 10-20, more preferably 12-18. High in vitro transfection efficiency is obtained with the method of the invention when nanoparticles encompassing plasmid DNA, K16 peptide are prepared and applied, and are contacted with cells in the presence of a saponin selected from GE1741 and SO1861, and preferably the saponin is GE1741. Typically, the saponin concentration during transfection of the plasmid DNA into selected target cells in vitro is 1 μg/mL-5 μg/mL, preferably 2-4 μg/mL. […] Cells are typically contacted with a composition comprising the nanoplexes and a separate composition comprising the saponin, preferably GE1741. Thus, typically, the nanoparticles comprise the poly-lysine peptide and the nucleic acid, for example at least a plasmid DNA encoding for a Cas, preferably Cas9 (SEQ ID NO: 1), or a Cas with at least 90% sequence identity with this Cas9, preferably 90-99.5% sequence identity, such as 92%, 93%, 94%, 95% or 95-99%.

**Q.** With `CC(=O)OC1C(C)OC(OC2C(C)OC(OC(=O)C34CCC(C)(C)CC3C3=CCC5C6(C)CCC(OC7OC(C(=O)O)C(O)C(OC8OCC(O)C(O)C8O)C7OC7OC(CO)C(O)C(O)C7O)C(C)(C=O)C6CCC5(C)C3(C)CC4O)C(OC3OC(C)C(OC4OCC(O)C(OC5OCC(O)C(O)C5O)C4O)C(O)C3O)C2O)C(O)C1OC(C)=O` (stereo not drawn) [GE1741] as the molecule, how does the “transfection efficiency (cells expressing GFP)” value (Neuro-2A cells; GFP-DNA PD-nanoplexes, saponin 2 μg/ml, Neuro-2A) read?
**A.** The value was “around 70%”.

**Q.** What about the “transfection modulating properties compared to SO1861” value (Neuro-2A cells; large plasmid PD-nanoplexes, Neuro-2A and JIMT-1) of the same molecule?
**A.** Its value is “slightly better transfection modulating properties; also recorded: even more improved transfection efficiency”.

**Q.** And the “transfection efficiency compared with Lipofectamine3000” value (Neuro-2A cells; nanoplexes of relatively large DNA plasmid and poly-lysine, saponin present)?
**A.** Its value is “higher than obtainable with current gold standard Lipofectamine3000™”.

**Q.** What about the “transfection efficiency (cells expressing GFP)” value (JIMT-1 cells) of the same molecule?
**A.** The value was “around 70%”.

**Q.** And the “toxic effects by confluence” value (Neuro-2A-cells)?
**A.** The value was “No distinct toxic effects”.

**Q.** And the “highest non-toxic saponin Co-administration” value [1]?
**A.** Its value is 2 µg/mL.
